According to patent US20220088056A1, “COMBINATION FOR TREATING CANCER” (NITTO DENKO CORPORATION, priority 2018, published 2022):

Tests used:
[1] = tested on: hsa-miR-345-overexpressing HCT116 cells or control HCT116 cells; assay: Cell number counting in hsa-miR-345-overexpressing versus control HCT116 cells after transfection with BcL-XL inhibitor (Example 3); format: cell-based; conditions: 25 pmol; hsa-miR-345-overexpressing vs hsa-miR-345 wild-type HCT116 line; days 1 and 4 after transfection; FIG. 3
Description: The anticancer activity of a BcL-XL inhibitor was evaluated in cancer cells in which miR-345 was overexpressed by a miR-345-related molecule.
The miR-345-related molecule used was Expression plasmid for human microRNA MIR345 (MI0000825, OriGene Technologies, Inc., Compound F).
A cell line overexpressing miR-345 was established by introducing Compound E to hsa-miR-345 wild-type HCT116 cells using Lipofectamine 3000 (Invitrogen Corp.), and picking up a single clone by drug selection. In the experiment, a clone was used which was confirmed to have the increased expression of hsa-miR-345-5p by qPCR. A hsa-miR-345 wild-type HCT116 cell line as a control was established by introducing Expression plasmid pCMV-MIR Vector (PCMVMIR, OriGene Technologies, Inc., Compound G) to hsa-miR-345 wild-type HCT116 cells using Lipofectamine 3000 (Invitrogen Corp.), and picking up a single clone by drug selection.
Transfection with Compound A was performed as follows: on the day before transfection, the hsa-miR-345-overexpressing HCT116 cells or the control HCT116 cells were seeded at 0.1×10^5 cells/well to a 6-well tissue culture plastic dish. 25 pmol of Compound A was added into 250 μL of Opti-MEM I Reduced Serum Medium (Invitrogen Corp.) and gently mixed. […] On days 1 and 4 after the transfection, the cell number was counted. […]

[2] = tested on: human normal dermal fibroblasts NHDF-Ad-Der Fibroblasts; assay: Influence on proliferation of normal cells, live and dead cell count with Hoechst 33342 / propidium iodide (Example 5); format: cell-based; conditions: 1.1+1.1 pmol, day 4 after transfection, compared with control (Compound C and Compound I), FIG. 5
Description: A combination of a BcL-XL inhibitor and a miR-345-related molecule was tested for the presence or absence of its influence on the proliferation of normal cells.
The BcL-XL inhibitor used was Compound A, and the miR-345-related molecule used was Compound B. Compound C was used as a negative control of the BcL-XL inhibitor, and Compound I was used as a negative control of the miR-345-related molecule.
The normal cells used were human normal dermal fibroblasts NHDF-Ad-Der Fibroblasts (Lonza Group AG, #CC-2511). The cells were cultured in Fibroblast Basal Medium (FBM™, Lonza Group AG, #CC-3131) containing FGM™-2 SingleQuots™ (Lonza Group AG, #CC-4126) under conditions of 37° C. and 5% CO2.
Transfection with the BcL-XL inhibitor and/or the miR-345-related molecule was performed as follows: on the day before transfection, NHDF was seeded at 0.15×10^4 cells/well to a 96-well tissue culture plastic dish. […] Live and dead cell numbers were counted using Celigo® Image Cytometer (Nexcelom Bioscience, LLC, #Celigo-106-0448) in which the number of cells stained with Hoechst 33342 was regarded as the total of the live and dead cell numbers and the number of cells stained with propidium iodide was regarded as the dead cell number.

## Compound A: BcL-XL inhibitor: siRNA, sense 5'-GGUAUUGGUGAGUCGGAUCtt-3' (SEQ ID NO: 4), antisense 5'-GAUCCGACUCACCAAUACCtt-3' (SEQ ID NO: 5) (sense GGUAUUGGUGAGUCGGAUCTT; antisense GAUCCGACUCACCAAUACCTT; chemistry not given here)
[1]
  cell proliferation-suppressing effect (cell number): appeared more strongly in the hsa-miR-345-overexpressing line than in the hsa-miR-345 wild-type line
[2]
  suppression of the proliferation of normal cells: neither the BcL-XL inhibitor alone or the miR-345-related molecule alone nor their concurrent use suppressed the proliferation of normal cells
